The values that follow come from ChEMBL document CHEMBL4390655, “N,N-bis-heteroaryl methylamines: Potent anti-mitotic and highly cytotoxic agents” (Eur J Med Chem, 2019).

The pIC50 is −log10 of the IC50, conventionally taken in molar units. Broadly, the GI50 is the concentration at which growth is held to half of that of the control.

pIC50: −log10 of the molar value. The source made the active and inactive calls. The rule behind the calls is not given here.

The test system of data set [1] is HCT-116. Nature of the data set: Cytotoxicity against human HCT116 cells assessed as reduction in cell growth measured after 72 hrs by MTS assay. It is filed as functional, cell-based. Particulars: for pIC50: Homo sapiens, HCT-116, 72 h, read-out: IC50; for IC50: hct-116.
Data set [2] can be described thus: Inhibition of sheep brain tubulin polymerization in presence of GTP by DAPI based fluorimetric method. The arrangement: species or system Ovis aries. Particulars: for pIC50: read-out: IC50.
The subject of data set [3] is HCT-116. Nature of the data set: Cell cycle arrest in human HCT116 cells assessed as accumulation at S phase at 10 nM incubated for 24 hrs by propidium iodide staining based flow cytometry (reference value: 40%). It is filed as functional. (In flow cytometry, cells or beads pass a laser one at a time.)
Data set [4] deals with HCT-116. Nature of the data set: Cell cycle arrest in human HCT116 cells assessed as accumulation at G2/M phase at 5 nM incubated for 24 hrs by propidium iodide staining based flow cytometry (reference value: 23%). The data set is classed as functional.
Data set [5] can be described thus: Cytotoxicity against human A2780R cells assessed as reduction in cell growth measured after 72 hrs by MTS assay. The data set is classed as functional, cell-based. Background: Tetrazolium dyes change colour on reduction, which living cells bring about.
The subject of data set [6] is HUVEC. The data set is described as follows: Antiproliferative activity against human HUVEC assessed as growth inhibition up to 5 hrs. It is filed as cell-based.
The test system of data set [7] is HCT-116. The data set is described as follows: Cell cycle arrest in human HCT116 cells assessed as accumulation at G0/G1 phase at 10 nM incubated for 24 hrs by propidium iodide staining based flow cytometry (reference value: 37%). It is filed as functional.
The subject of data set [8] is HCT-116. Nature of the data set: Cell cycle arrest in human HCT116 cells assessed as accumulation at G0/G1 phase at 1 nM incubated for 24 hrs by propidium iodide staining based flow cytometry (reference value: 37%). It is filed as functional.
Data set [9] deals with HCT-116. Nature of the data set: Cell cycle arrest in human HCT116 cells assessed as accumulation at G2/M phase incubated for 24 hrs by propidium iodide staining based flow cytometry. The data set is classed as functional.
For data set [10], the system named is HCT-116. The data set is described as follows: Cell cycle arrest in human HCT116 cells assessed as accumulation at S phase at 5 nM incubated for 24 hrs by propidium iodide staining based flow cytometry (reference value: 40%). The data set is classed as functional.
Data set [11] concerns HCT-116. The data set is described as follows: Cell cycle arrest in human HCT116 cells assessed as accumulation at G2/M phase at 10 nM incubated for 24 hrs by propidium iodide staining based flow cytometry (reference value: 23%). It is filed as functional.
Data set [12] concerns K-562R. The data set is described as follows: Cytotoxicity against human K562R cells assessed as reduction in cell growth measured after 72 hrs by MTS assay. It is filed as functional, cell-based.
Data set [13] relates to MIA PaCa-2. The data set is described as follows: Cytotoxicity against human MIAPaCa2 cells assessed as reduction in cell growth measured after 72 hrs by MTS assay. The data set is classed as functional, cell-based. Particulars: MIA PaCa-2, 72 h.
In data set [14] the test system is HCT-116. Nature of the data set: Cell cycle arrest in human HCT116 cells assessed as accumulation at G0/G1 phase at 5 nM incubated for 24 hrs by propidium iodide staining based flow cytometry (reference value: 37%). The data set is classed as functional.
The subject of data set [15] is HCT-116. Nature of the data set: Induction of apoptosis in human HCT116 cells assessed as caspase-3/7 activation at 0.1 to 10 nM after 24 hrs by Apo-one caspase 3/7 assay. The data set is classed as functional, cell-based.
Data set [16] can be described thus: Antiproliferative activity against HUVEC assessed as growth inhibition after 72 hrs. The data set is classed as cell-based. The following applies: human, HUVEC cells.
Data set [17] relates to JIMT-1. Nature of the data set: Cytotoxicity against human JIMT1 cells assessed as reduction in cell growth measured after 72 hrs by MTS assay. The data set is classed as functional, cell-based. Particulars: JIMT-1, 72 h.
The test system of data set [18] is HCT-116. The data set is described as follows: Cell cycle arrest in human HCT116 cells assessed as accumulation at S phase at 1 nM incubated for 24 hrs by propidium iodide staining based flow cytometry (reference value: 40%). The data set is classed as functional.
The subject of data set [19] is HCT-116. The data set is described as follows: Cell cycle arrest in human HCT116 cells assessed as accumulation at G2/M phase at 1 nM incubated for 24 hrs by propidium iodide staining based flow cytometry (reference value: 23%). The data set is classed as functional.
The subject of data set [20] is A2780. Nature of the data set: Cytotoxicity against human A2780 cells assessed as reduction in cell growth measured after 72 hrs by MTS assay. It is filed as functional, cell-based. The following applies: A2780, 72 h.
Data set [21] has as its system K562. The data set is described as follows: Cytotoxicity against human K562 cells assessed as reduction in cell growth measured after 72 hrs by MTS assay. It is filed as functional, cell-based. The following applies: K562, 72 h.
Data set [22] has as its system HUVEC. The data set is described as follows: Antivascular activity against HUVEC assessed as reduction in capillary like tube formation by measuring disruption of cell network integrity at 10 nM measured up to 5 hrs by matrigel method relative to control. It is filed as functional, cell-based. The following applies: Homo sapiens.

As to `Cn1c2ccccc2c2cc([N+](C)(C)c3ccnc4ccccc34)ccc21.[I-]`, in data set [1], the pIC50 is 6.05. For the same compound, the IC50 result in [2] is “Not Active”.

As to `CCn1c2ccccc2c2cc(N(C)c3cc(C)nc4ccccc34)ccc21`, the pIC50 in data set [1] is 6.73. Further, the IC50 entry in data set [2] is listed as “Not Active”.

Turning to `Cc1cc(N(C)c2ccc3oc4ccccc4c3c2)c2ccccc2n1`, in data set [1], the pIC50 was 6.07. Moreover, the IC50 entry in data set [2] is reported as “Not Active”.

On to `Cc1nc(N(C)c2ccc3c(c2)c2ccccc2n3C)c2ccccc2n1`, for which the pIC50 in data set [1] was 8.62; in [2], 5.42.

Turning to `COc1cccc2c(N(C)c3ccc4c(c3)c3ccccc3n4C)cc(C)nc12`, the figures for the pIC50 in data set [1] and in data set [2] were 7.67 and 5.83, respectively.

Regarding `Cc1cc(N(C)c2ccc3c(c2)c2ccccc2n3C)c2cc([N+](=O)[O-])ccc2n1`, in data set [1], the pIC50 was 6.21. Besides, in data set [2], the IC50 result was “Not Active”.

Turning to `Cc1cc(N(C)c2ccc3[nH]c4ccccc4c3c2)c2ccccc2n1`, the IC50 entry in data set [1] and in [2] was “Not Active” throughout.

As for `Cc1cc(N(C)c2ccc3c(c2)c2ccccc2n3C)c2cc(N)ccc2n1`, the values for the pIC50 in [1] and in data set [2] were 7.61 and 5.24, respectively.

`CN(c1ccc2c(ccn2C)c1)c1cc(C(F)(F)F)nc2ccccc12`: the pIC50 in [1] is 8.48; in [2], 5.60.

`Cc1cc(N(C)c2ccc3c(c2)c2ccccc2n3C)ccn1`: the pIC50 in data set [1] was 6.06. Also, in data set [2], the IC50 result is recorded as “Not Active”.

In the case of `Cc1cc(N(C)c2ccc3c(c2)c2cc(N)ccc2n3C)c2ccccc2n1`, the pIC50 in [1] is 8.54; in [2], 5.56.

`Cc1cc(N(C)c2ccc3c(c2)c2ccccc2n3Cc2ccccc2)c2ccccc2n1`: the IC50 result in data set [1] and in [2] was “Not Active” throughout.

In the case of `Cc1cc(N(C)c2ccc3c(c2)c2ccccc2n3C)c2ccccc2n1`, the Activity was 18% in data set [3]; 80% in [4]; “Non-Toxic” in data set [6]; 0% in data set [7]; 35% in data set [8]; “Dose-dependent effect” in data set [9]. Moreover, the Activity was 12% in [10]; 82% in data set [11]; 8% in data set [14]; “Dose-dependent effect” in data set [15]; 40% in [18]; 25% in data set [19]. For the same compound, the pIC50 was 9.27 in [5]; 9.55 in data set [12]; 9.33 in data set [13]; 10.15 in data set [1]; 9.44 in [17]; 5.95 in [2]. The pIC50 was 9.28 in data set [20] and 9.22 in [21]. In addition, in data set [16], the GI50 at 72 h turned out to be 3.23 nM. In addition, the outcome in data set [22] was Active.

For the compound `Cc1cc(N(C)c2ccc3c(c2)c2ccccc2n3C)c2cccc(O)c2n1`, the values for the pIC50 in data set [1] and in data set [2] were 7.30 and 5.91, respectively.

With `Cc1cc(N(C)c2ccc3c(c2)OCCO3)c2ccccc2n1`, the pIC50 in data set [1] is 7.68; in data set [2], 5.39.

Take `C=C(c1cc(N(C)c2cc(C)nc3ccccc23)ccc1OC)c1cc(C)nc2ccccc12`: the negative-log IC50 (pIC50) in data set [1] was 6.01. Further, the IC50 entry in data set [2] is “Not Active”.

`Cc1cc(N(C)c2ccc3c(c2)c2cc([N+](=O)[O-])ccc2n3C)c2ccccc2n1`: the IC50 entry in data set [1] and in [2] was “Not Active” in each case.

Take `C=C(c1ccc(OC)c(O)c1)c1cc(OC)c(OC)c(OC)c1`: the pIC50 in [5] was 8.58; in data set [13], 8.30; in data set [1], 8.74; in data set [17], 8.51; in data set [2], 6.00; in [20], 8.52.

Take `COc1ccc(N(C)c2cc(C)nc3ccccc23)nc1O`: in data set [1], the pIC50 is 6.69. Moreover, the IC50 result in data set [2] is listed as “Not Active”.

In the case of `Cc1cc(N(C)c2ccc3c(ccn3C)c2)c2ccccc2n1`, the figures for the pIC50 in [1] and in data set [2] were 8.70 and 5.87, respectively.

Take `CN(c1ccc2c(c1)c1ccccc1n2C)c1cc(C(F)(F)F)nc2ccccc12`: the pIC50 in [1] is 6.07. For the same compound, the IC50 result in [2] was “Not Active”.

For the compound `COc1ccc2c(ccn2-c2cc(C)nc3ccccc23)c1`, the pIC50 in [1] is 6.32. Besides, the IC50 result in data set [2] is “Not Active”.

For the compound `CN(c1ccc2c(ccn2C)c1)c1nc(Cl)nc2ccccc12`, the negative-log IC50 (pIC50) in data set [5] was 8.63; in data set [12] it was 8.75; in data set [13], 9.21; in data set [1], 9.70; in data set [17], 9.28; in data set [2], 5.92. Further, the pIC50 was 9.62 in data set [20] and 9.11 in [21].

With `CN(c1ccc2c(c1)c1ccccc1n2C)c1cc(Cl)nc2ccccc12`, the pIC50 in [1] was 7.78; in data set [2] it was 5.94.

Take `CN(c1ccc2c(c1)c1ccccc1n2C)c1nc(Cl)nc2ccccc12`: the pIC50 in data set [1] was 8.97; in data set [2] it was 5.50.

For `CN(c1ccc2c(c1)c1ccccc1n2C)c1cc(C#N)nc2ccccc12`, the values for the negative logarithm of the IC50 (pIC50) in data set [1] and in data set [2] were 7.92 and 5.85, respectively.

As to `Cc1cc(N(C)c2ccc3c(c2)c2cc(C(C)O)ccc2n3C)c2ccccc2n1` (stereo not given), the pIC50 in data set [1] was 6.66. Further, the IC50 entry in data set [2] is listed as “Not Active”.

Turning to `COc1ccc(N(C)c2cc(C)nc3ccccc23)nc1N`, the values for the pIC50 in data set [1] and in data set [2] were 8.76 and 6.05, respectively.

On to `CN(c1ccc2c(c1)c1ccccc1n2C)c1ccnc2ccccc12`, for which the pIC50 in data set [1] was 6.03. The IC50 result in [2] was “Not Active”.

In the case of `COc1ccc(N(C)c2cc(C)nc3ccccc23)nc1Cl`, the pIC50 in data set [1] was 6.34. In addition, the IC50 entry in data set [2] was “Not Active”.
